Test results: ChEMBL document CHEMBL1201862, “PubChem BioAssay data set” (2004)
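Briefly, cells in 96-well plates were exposed to five compound concentrations for 48 h, and endpoints were estimated by linear interpolation. Abbreviation: GI50, concentration required for 50% inhibition of growth.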 Active and inactive are the calls of the source. Rule as the data show it: active = GI50 up to about 1.1 µM and inactive = higher.

Key:
Assay in all cases: inhibition of tumour cell growth, NCI panel, 48 h
HOP-62 = system: HOP-62
ACHN = system: ACHN
KM12 = system: KM12
Malme-3M = system: Malme-3M
OVCAR-5 = system: OVCAR-5
SK-MEL-2 = system: SK-MEL-2
COLO 205 = system: COLO 205
NCI-H460 = system: NCI-H460
UO-31 = system: UO-31
IGROV-1 = system: IGROV-1
UACC-257 = system: UACC-257
NCI-H522 = system: NCI-H522
RPMI-8226 = system: RPMI-8226
786-0 = system: 786-0
SNB-19 = system: SNB-19
SW-620 = system: SW-620
HCT-116 = system: HCT-116

Measured: GI50

CC(C)N1CC2CC(CN(C(=O)c3ccccc3)C2)C1.[O-][Cl+3]([O-])([O-])O
inactive: HOP-62 > 100 µM | ACHN > 100 µM | KM12 > 100 µM | Malme-3M > 100 µM | OVCAR-5 > 100 µM | SK-MEL-2 > 100 µM | COLO 205 > 100 µM | NCI-H460 > 100 µM | UO-31 > 100 µM | IGROV-1 > 100 µM | UACC-257 > 100 µM | NCI-H522 > 100 µM | RPMI-8226 > 100 µM | 786-0 > 100 µM | SNB-19 > 100 µM | SW-620 > 100 µM

C1CCOC2(CCC3(CC2)OCCCCO3)OC1
inactive: HOP-62 > 100 µM | ACHN > 100 µM | KM12 > 100 µM | Malme-3M > 100 µM | SK-MEL-2 > 100 µM | COLO 205 > 100 µM | NCI-H460 > 100 µM | UO-31 > 100 µM | IGROV-1 > 100 µM | UACC-257 > 100 µM | NCI-H522 > 100 µM | RPMI-8226 > 100 µM | 786-0 > 100 µM | HCT-116 > 100 µM | SNB-19 > 100 µM | SW-620 > 100 µM

COC(=O)c1ccccc1N1C(=O)Cc2ccccc2C1=O
inactive: ACHN > 100 µM | KM12 > 100 µM | Malme-3M > 100 µM | OVCAR-5 > 100 µM | SK-MEL-2 > 100 µM | COLO 205 > 100 µM | UO-31 > 100 µM | IGROV-1 > 100 µM | UACC-257 > 100 µM | RPMI-8226 > 100 µM | 786-0 66.1 µM | HCT-116 > 10 µM | SNB-19 > 100 µM | SW-620 > 100 µM

COc1ccc(C2S/C(=C\c3cccc([N+](=O)[O-])c3)C(=O)N2NC(=O)Cc2ccccc2)cc1 (stereo not drawn)
inactive: HOP-62 > 100 µM | ACHN > 100 µM | KM12 > 100 µM | Malme-3M > 100 µM | OVCAR-5 > 100 µM | SK-MEL-2 > 100 µM | COLO 205 > 100 µM | NCI-H460 > 100 µM | UO-31 > 100 µM | IGROV-1 > 100 µM | UACC-257 > 100 µM | NCI-H522 > 100 µM | RPMI-8226 > 100 µM | 786-0 > 100 µM | HCT-116 > 100 µM | SW-620 > 100 µM

COC(=O)C1=C(C(=O)OC)C2C=CC1C1C(Cl)=C(Cl)C21 (stereo not drawn)
inactive: HOP-62 > 100 µM | ACHN > 100 µM | KM12 > 100 µM | Malme-3M > 100 µM | OVCAR-5 > 100 µM | SK-MEL-2 > 100 µM | COLO 205 > 100 µM | NCI-H460 > 100 µM | UO-31 > 100 µM | IGROV-1 > 100 µM | UACC-257 > 100 µM | NCI-H522 > 100 µM | RPMI-8226 > 100 µM | 786-0 > 100 µM | SW-620 > 100 µM

O=C(CCC(=O)Nc1cccc(C(F)(F)F)c1)CC(=O)c1ccc2ccccc2c1
inactive: ACHN > 100 µM | KM12 > 100 µM | Malme-3M > 100 µM | OVCAR-5 > 100 µM | SK-MEL-2 > 100 µM | COLO 205 > 100 µM | NCI-H460 > 100 µM | UO-31 > 100 µM | IGROV-1 > 100 µM | UACC-257 > 100 µM | NCI-H522 > 100 µM | RPMI-8226 > 100 µM | 786-0 > 100 µM | HCT-116 > 100 µM | SNB-19 > 100 µM | SW-620 > 100 µM

COc1ccc(C2Cc3cc(OC)c(OC)c(OC)c3C2)cc1 (stereo not drawn)
inactive: HOP-62 97.5 µM | ACHN 39.1 µM | KM12 23 µM | Malme-3M 22.8 µM | OVCAR-5 90.4 µM | SK-MEL-2 30.6 µM | COLO 205 66.7 µM | NCI-H460 46.6 µM | UO-31 21.3 µM | IGROV-1 > 100 µM | UACC-257 23.2 µM | RPMI-8226 18.8 µM | 786-0 61.4 µM | HCT-116 41 µM | SNB-19 55.6 µM | SW-620 29.4 µM

O=c1nc2sc3ccc4ccccc4c3n2nc1-c1ccccc1
inactive: HOP-62 26.7 µM | ACHN 27.8 µM | KM12 63.5 µM | Malme-3M 21.4 µM | OVCAR-5 > 100 µM | SK-MEL-2 > 100 µM | COLO 205 56.2 µM | NCI-H460 22.1 µM | UO-31 22.3 µM | IGROV-1 25.4 µM | UACC-257 99.3 µM | 786-0 18.7 µM | HCT-116 21.7 µM | SNB-19 29.4 µM | SW-620 32.5 µM

COc1ccc(C(=O)C(C(=O)C(=O)Nc2nccs2)c2ccc(OC)cc2)cc1 (stereo not drawn)
inactive: ACHN > 100 µM | KM12 > 100 µM | Malme-3M > 100 µM | OVCAR-5 > 100 µM | SK-MEL-2 > 100 µM | COLO 205 > 100 µM | NCI-H460 > 100 µM | UO-31 > 100 µM | IGROV-1 > 100 µM | UACC-257 > 100 µM | NCI-H522 92 µM | RPMI-8226 > 100 µM | 786-0 > 100 µM | HCT-116 > 100 µM | SNB-19 > 100 µM | SW-620 > 100 µM

CC1C=CC(C)C2(O)C(=O)NC(O)C12 (stereo not drawn)
inactive: HOP-62 > 100 µM | ACHN > 100 µM | KM12 > 100 µM | Malme-3M > 100 µM | SK-MEL-2 > 100 µM | COLO 205 > 100 µM | NCI-H460 > 100 µM | UO-31 > 100 µM | IGROV-1 > 100 µM | UACC-257 > 100 µM | NCI-H522 > 100 µM | RPMI-8226 > 100 µM | 786-0 > 100 µM | HCT-116 > 100 µM | SNB-19 > 100 µM | SW-620 > 100 µM

Cc1ccccc1NC(=O)C(=O)Cc1nc2ccccc2s1
inactive: HOP-62 > 100 µM | ACHN > 100 µM | KM12 > 100 µM | Malme-3M > 100 µM | OVCAR-5 > 100 µM | SK-MEL-2 > 100 µM | COLO 205 > 100 µM | NCI-H460 > 100 µM | UO-31 > 100 µM | IGROV-1 > 100 µM | UACC-257 > 100 µM | NCI-H522 > 100 µM | 786-0 > 100 µM | HCT-116 > 100 µM | SNB-19 > 100 µM | SW-620 > 100 µM

CCOc1ccc(/N=C\c2cc(OC)c(OC)c(OC)c2)cc1
inactive: HOP-62 > 100 µM | ACHN > 100 µM | KM12 > 100 µM | Malme-3M > 100 µM | OVCAR-5 > 100 µM | SK-MEL-2 > 100 µM | NCI-H460 > 100 µM | UO-31 > 100 µM | IGROV-1 > 100 µM | UACC-257 > 100 µM | NCI-H522 > 100 µM | RPMI-8226 18.2 µM | 786-0 > 100 µM | HCT-116 > 100 µM | SNB-19 > 100 µM | SW-620 14.9 µM

CC1(C)OC(=O)C(=C2CC(c3ccccc3)c3ccccc32)C(=O)O1 (stereo not drawn)
inactive: HOP-62 > 100 µM | ACHN > 100 µM | Malme-3M > 100 µM | OVCAR-5 > 100 µM | COLO 205 > 100 µM | NCI-H460 > 100 µM | UO-31 > 100 µM | IGROV-1 > 100 µM | UACC-257 > 100 µM | NCI-H522 > 100 µM | RPMI-8226 > 100 µM | 786-0 > 100 µM | HCT-116 > 100 µM | SNB-19 > 100 µM | SW-620 > 100 µM
